Format in all cases: biochemical
The target of one assay is T1, JAK1 (Homo sapiens, UniProt P23458).
T1 construct: JAK1 (aa 850-1154) and TYK2 (aa 871-1187) are expressed with an N-terminally fused GST-tag; GST (N); purchased Carna Biosciences, Inc; host or cells: baculovirus expression system
Nature of the assay: JAK kinase assay (HTRF, phosphorylation of synthetic peptide), JAK1. To be noted: catalytic domain, ATP at Km (7 μM); read-out: JAK1 kinase inhibitory activity (EC50). A digest of the protocol:
(§1)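 Catalytic-domain human JAK1 (GST-tagged, aa 850-1154) or His-tagged JAK2, baculovirus-expressed, phosphorylated 1 µM biotinylated TK peptide at Km ATP (JAK1 7 µM, 10 mM MgCl2, 50 nM SEB; JAK2 4 µM, 5 mM MgCl2) in pH 7.0 Hepes, 20-30 min RT. EDTA stop; overnight streptavidin-XL665/cryptate HTRF read.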

In the next assay the target is T2, JAK2 (Homo sapiens, UniProt O60674).
T2 construct: All four purified enzymes contain only the catalytic domain; His (N); purchased Carna Biosciences, Inc; host or cells: baculovirus expression system
The experiment in a line: JAK kinase assay (HTRF, phosphorylation of synthetic peptide), JAK2. To be noted: catalytic domain, ATP at Km (4 μM); read-out: JAK2 kinase inhibitory activity (EC50). A digest of the protocol: as §1
On the technique in general: In TR-FRET formats the signal depends on donor and acceptor labels being close together.

The next assay has as its target T3, JAK3 (Homo sapiens, UniProt P52333).
T3 construct: All four purified enzymes contain only the catalytic domain; His (N); purchased Carna Biosciences, Inc; host or cells: baculovirus expression system
Nature of the assay: JAK kinase assay (HTRF, phosphorylation of synthetic peptide), JAK3. To be noted: catalytic domain, ATP at Km (2 μM); read-out: JAK3 kinase inhibitory activity (EC50).

The target in a further assay is T4, TYK2 (Homo sapiens, UniProt P29597).
T4 construct: JAK1 (aa 850-1154) and TYK2 (aa 871-1187) are expressed with an N-terminally fused GST-tag; GST (N); purchased Carna Biosciences, Inc; host or cells: baculovirus expression system
T4 sequence (P29597 871-1187): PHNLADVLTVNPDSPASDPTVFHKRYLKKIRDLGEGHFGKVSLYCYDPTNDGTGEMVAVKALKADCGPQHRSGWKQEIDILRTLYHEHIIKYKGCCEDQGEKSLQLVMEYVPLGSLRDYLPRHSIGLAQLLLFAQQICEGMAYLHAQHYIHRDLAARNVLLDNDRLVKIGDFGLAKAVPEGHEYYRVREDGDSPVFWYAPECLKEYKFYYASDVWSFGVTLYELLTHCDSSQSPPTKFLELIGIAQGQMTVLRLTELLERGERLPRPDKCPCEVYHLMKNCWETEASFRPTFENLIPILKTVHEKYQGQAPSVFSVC
Nature of the assay: JAK kinase assay (HTRF, phosphorylation of synthetic peptide), TYK2. To be noted: catalytic domain, ATP at Km (13 μM); read-out: TYK2 kinase inhibitory activity (EC50). A digest of the protocol: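 1 µM biotinylated TK peptide at Km ATP in pH 7.0 Hepes, 20-30 min RT. EDTA stop; overnight streptavidin-XL665/cryptate HTRF read.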

T3 sequence (P52333 822-1111 limits assumed): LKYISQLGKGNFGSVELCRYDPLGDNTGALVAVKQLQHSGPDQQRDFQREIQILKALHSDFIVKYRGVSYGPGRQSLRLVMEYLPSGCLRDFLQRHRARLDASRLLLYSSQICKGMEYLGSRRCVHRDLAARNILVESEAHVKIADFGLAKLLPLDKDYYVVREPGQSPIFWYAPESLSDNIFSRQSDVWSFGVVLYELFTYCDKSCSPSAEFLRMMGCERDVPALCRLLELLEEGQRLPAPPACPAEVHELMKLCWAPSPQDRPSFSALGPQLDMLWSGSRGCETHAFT
T2 sequence (O60674 849-1124 limits assumed): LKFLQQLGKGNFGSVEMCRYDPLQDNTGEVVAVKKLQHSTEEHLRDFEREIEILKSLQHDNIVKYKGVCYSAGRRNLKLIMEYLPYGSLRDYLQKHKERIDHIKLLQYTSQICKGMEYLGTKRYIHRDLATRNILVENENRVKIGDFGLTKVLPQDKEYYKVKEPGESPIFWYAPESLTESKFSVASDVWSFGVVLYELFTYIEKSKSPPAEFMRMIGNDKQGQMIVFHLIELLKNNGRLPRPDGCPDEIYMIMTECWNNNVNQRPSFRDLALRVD
T1 sequence (P23458 850-1154): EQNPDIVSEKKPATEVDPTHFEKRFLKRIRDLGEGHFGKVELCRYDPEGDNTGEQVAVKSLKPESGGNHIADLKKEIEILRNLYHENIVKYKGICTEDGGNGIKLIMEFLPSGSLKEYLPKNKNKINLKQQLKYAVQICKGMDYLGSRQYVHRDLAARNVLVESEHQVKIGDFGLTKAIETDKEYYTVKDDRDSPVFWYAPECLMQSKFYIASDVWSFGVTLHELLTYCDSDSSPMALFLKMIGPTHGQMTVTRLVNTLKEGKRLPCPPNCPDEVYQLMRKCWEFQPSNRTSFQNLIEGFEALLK

By EC50 is commonly meant the concentration that produces a half-maximal response. As for `O=S(=O)(N(CCc1ccccc1)CCc1cccc(F)c1)N1CCN(c2ncnc3[nH]ccc23)CC12CC2` [Example 48, 7-(7H-Pyrrolo[2,3-d]pyrimidin-4-yl)-4,7-diaza-spiro[2.5]octane-4-sulfonic acid [2-(3-fluoro-phenyl)-ethyl]-phenethyl-amide], the EC50 at JAK1 is 100 to 500 nM; at JAK2, 100 to 500 nM; at JAK3 it was over 500 nM; on TYK2 it was over 500 nM.
Take `CN(Cc1ccc(F)cc1)S(=O)(=O)N1CCN(c2ncnc3[nH]ccc23)CC12CC2` [Example 79, N-[(4-fluorophenyl)methyl]-N-methyl-5-(7H-pyrrolo[2,3-d]pyrimidin-4-yl)-5,8-diazaspiro[2.5]octane-8-sulfonamide]: the EC50 at JAK1 is under 100 nM; at JAK2, under 100 nM; at JAK3, under 100 nM; at TYK2 it was 100 to 500 nM.
As for `O=S(=O)(NC[C@@H]1CCCN1Cc1ccccc1)N1CCN(c2ncnc3[nH]ccc23)CC12CC2` [Example 175, N-[[(2S)-1-benzylpyrrolidin-2-yl]methyl]-5-(7H-pyrrolo[2,3-d]pyrimidin-4-yl)-5,8-diazaspiro[2.5]octane-8-sulfonamide], the EC50 at JAK1 was under 100 nM; on JAK2 it was under 100 nM; at JAK3 it was 100 to 500 nM; at TYK2 it was 100 to 500 nM.
In the case of `CN(C[C@H]1CCCN1)S(=O)(=O)N1CCN(c2ncnc3[nH]ccc23)CC12CC2` [Int 51], the EC50 on JAK1 was 100 to 500 nM; at JAK2, 100 to 500 nM; at JAK3, over 500 nM; on TYK2, over 500 nM.
`N#CCN(CC#N)S(=O)(=O)N1CCN(c2ncnc3[nH]ccc23)CC12CC2` [Example 145, N,N-bis(cyanomethyl)-5-(7H-pyrrolo[2,3-d]pyrimidin-4-yl)-5,8-diazaspiro[2.5]octane-8-sulfonamide]: the EC50 was under 100 nM at JAK1, under 100 nM on JAK2, under 100 nM at JAK3 and 100 to 500 nM at TYK2.
As for `CN(C(=O)CCC(F)(F)F)S(=O)(=O)N1CCN(c2ncnc3[nH]ccc23)CC12CC2` [Example 131, 4,4,4-trifluoro-N-methyl-N-[[5-(7H-pyrrolo[2,3-d]pyrimidin-4-yl)-5,8-diazaspiro[2.5]octan-8-yl]sulfonyl]butanamide], the EC50 is under 100 nM at JAK1, under 100 nM at JAK2, 100 to 500 nM at JAK3 and under 100 nM at TYK2.
For the molecule `CN(CC1CCCN(C(=O)CCC#N)C1)S(=O)(=O)N1CCN(c2ncnc3[nH]ccc23)CC12CC2` (stereo not drawn) [Example 153, N-[[1-(3-cyanopropanoyl)-3-piperidyl]methyl]-N-methyl-5-(7H-pyrrolo[2,3-d]pyrimidin-4-yl)-5,8-diazaspiro[2.5]octane-8-sulfonamide], the EC50 is under 100 nM at JAK1, under 100 nM on JAK2, 100 to 500 nM at JAK3 and over 500 nM at TYK2.
As for `O=S(=O)(N(CCCc1ccccc1)CCc1ccccc1)N1CCN(c2ncnc3[nH]ccc23)CC12CC2` [Example 9, 7-(7H-Pyrrolo[2,3-d]pyrimidin-4-yl)-4,7-diaza-spiro[2.5]octane-4-sulfonic acid phenethyl-(3-phenyl-propyl)-amide], the EC50 on JAK1 was over 500 nM; on JAK2, 100 to 500 nM; on JAK3 it was over 500 nM; at TYK2 it was over 500 nM.
For `Cc1cc(CN(C)S(=O)(=O)N2CCN(c3ncnc4[nH]ccc34)CC23CC3)on1` [Example 67, N-methyl-N-[(3-methylisoxazol-5-yl)methyl]-5-(7H-pyrrolo[2,3-d]pyrimidin-4-yl)-5,8-diazaspiro[2.5]octane-8-sulfonamide], the EC50 at JAK1 was under 100 nM; at JAK2, under 100 nM; on JAK3, under 100 nM; at TYK2, 100 to 500 nM.
For `CN(CCC1CCCCC1)S(=O)(=O)N1CCN(c2ncnc3[nH]ccc23)CC12CC2` [Example 11, 7-(7H-Pyrrolo[2,3-d]pyrimidin-4-yl)-4,7-diaza-spiro[2.5]octane-4-sulfonic acid (2-cyclohexyl-ethyl)-methyl-amide], the EC50 at JAK1 is under 100 nM; at JAK2, under 100 nM; at JAK3 it was 100 to 500 nM; on TYK2, over 500 nM.
`CN(C(=O)CCC1CCCC1)S(=O)(=O)N1CCN(c2ncnc3[nH]ccc23)CC12CC2` [Example 134, 3-cyclopentyl-N-methyl-N-[[5-(7H-pyrrolo[2,3-d]pyrimidin-4-yl)-5,8-diazaspiro[2.5]octan-8-yl]sulfonyl]propanamide]: the EC50 was under 100 nM on JAK1, 100 to 500 nM at JAK2, over 500 nM on JAK3 and over 500 nM on TYK2.
With `CC(C)CCN(C)S(=O)(=O)N1CCN(c2ncnc3[nH]ccc23)CC12CC2` [Example 27, 7-(7H-Pyrrolo[2,3-d]pyrimidin-4-yl)-4,7-diaza-spiro[2.5]octane-4-sulfonic acid methyl-(3-methyl-butyl)-amide], the EC50 at JAK1 was under 100 nM; on JAK2, under 100 nM; at JAK3, under 100 nM; at TYK2, 100 to 500 nM.
For `CN(C(=O)C1CCC(F)(F)CC1)S(=O)(=O)N1CCN(c2ncnc3[nH]ccc23)CC12CC2` [Example 130, 4,4-difluoro-N-methyl-N-[[5-(7H-pyrrolo[2,3-d]pyrimidin-4-yl)-5,8-diazaspiro[2.5]octan-8-yl]sulfonyl]cyclohexanecarboxamide], the EC50 was under 100 nM on JAK1, under 100 nM at JAK2, under 100 nM on JAK3 and 100 to 500 nM at TYK2.
Turning to `CN(C1CCCC1)S(=O)(=O)N1CCN(c2ncnc3[nH]ccc23)CC12CC2` [Example 61, N-cyclopentyl-N-methyl-5-(7H-pyrrolo[2,3-d]pyrimidin-4-yl)-5,8-diazaspiro[2.5]octane-8-sulfonamide], the EC50 is under 100 nM on JAK1, under 100 nM at JAK2, under 100 nM on JAK3 and 100 to 500 nM at TYK2.
Regarding `CN(CCC1CCCC1)S(=O)(=O)N1CCN(c2ncnc3[nH]ccc23)CC12CC2` [Example 74, N-(2-cyclopentylethyl)-N-methyl-5-(7H-pyrrolo[2,3-d]pyrimidin-4-yl)-5,8-diazaspiro[2.5]octane-8-sulfonamide], the EC50 is under 100 nM at JAK1, under 100 nM on JAK2, 100 to 500 nM at JAK3 and 100 to 500 nM on TYK2.
In the case of `O=S(=O)(NC1COC1)N1CCN(c2ncnc3[nH]ccc23)CC12CC2` [Int 41], the half-maximal effective concentration (EC50) on JAK1 is under 100 nM; at JAK2, under 100 nM; at JAK3, under 100 nM; at TYK2, 100 to 500 nM.
For the molecule `COc1ccc(CCN(C)S(=O)(=O)N2CCN(c3ncnc4[nH]ccc34)CC23CC3)cc1OC` [Example 51, 7-(7H-Pyrrolo[2,3-d]pyrimidin-4-yl)-4,7-diaza-spiro[2.5]octane-4-sulfonic acid [2-(3,4-dimethoxy-phenyl)-ethyl]-methyl-amide], the EC50 was under 100 nM at JAK1, under 100 nM at JAK2, under 100 nM on JAK3 and 100 to 500 nM on TYK2.
Turning to `O=S(=O)(N(CCc1ccccc1)CCc1ccccc1)N1CCN(c2ncnc3[nH]ccc23)CC12CC2` [Example 18, 7-(7H-Pyrrolo[2,3-d]pyrimidin-4-yl)-4,7-diaza-spiro[2.5]octane-4-sulfonic acid diphenethylamide], the EC50 is 100 to 500 nM at JAK1, 100 to 500 nM on JAK2, over 500 nM at JAK3 and over 500 nM at TYK2.

The values are drawn from patent publication US9233964B2, “Sulfamide piperazine derivatives as protein tyrosine kinase inhibitors and pharmaceutical use therof” (LEO PHARMA A/S, priority 2011, dated 2016).
